Measured values reported in patent publication JP2008179567A, “ピラジン誘導体を有効成分とする抗がん剤” (Toray Industries Inc, priority 2007, dated 2008).

Columns and labels:
[1] = tested on: tumor derived from Colon26 cells, mouse colon cancer model [Colon26細胞由来の腫瘍, マウス結腸癌モデル]; assay: Tumor growth inhibition in mouse colon cancer model (Colon26, BALB/c); assay type: in vivo; conditions: 50 mg/kg i.v., sodium salt
[2] = Body weight and organ damage in mouse colon cancer model; assay type: in vivo; conditions: end of test, 50 mg/kg i.v.; sodium salt

For `Nc1nn(-c2cncc(-n3ccc(CC(=O)O)c3)n2)c2cc(Cl)ccc12` [参考例6, 2-{1-[6-(3-アミノ-6-クロロ-1H-インダゾリル)ピラジン-2-イル]ピロール-3-イル}酢酸], the estimated tumor volume ([1]; from day 5 after start of dosing, compared with control group (Fig. 1)) was “対照群に比較して小さくなった”, the tumor growth rate ([1]; day 7 after start of dosing, n=10, relative to estimated tumor volume on day 1, control 1068±197%, P=0.02 (Fig. 2)) was 493±81% and the tumor weight ([1]; day 15 after start of dosing, n=10, control 2.11±0.25 g, P=0.20) was 1.57 ± 0.31 g. For the same molecule, the “reduction of tumor weight” value ([1]; day 15 after start of dosing, vs control group, P=0.20) was 25%, the “body weight difference from control group” value [2] was “体重の差はなく” and the organ damage [2] was “各臓器の障害は何ら認められなかった”.
